Series [1] addresses T1, Cytochrome P450 3A4 (Homo sapiens, UniProt P08684). Briefly: Time dependent inhibition of CYP3A4 in human liver microsomes using midazolam as substrate incubated for 30 mins. It is filed as ADME, Microsome. For orientation: Liver microsomes are vesicles of endoplasmic reticulum, rich in cytochrome P450 enzymes.
The target of series [2] is T1, Cytochrome P450 3A4. Put plainly: Time dependent inhibition of CYP3A4 in human liver microsomes using midazolam as substrate preincubated for 30 mins followed by substrate addition. It is filed as ADME, Microsome.
For series [3] the following is noted: rat, in vivo, iv, 0.5 mg/kg.
Description: Unbound clearance in rat at 0.5 mg/kg, iv
Series [4] can be described thus: Clearance in rat at 0.5 mg/kg, iv. The conditions noted are these: in vivo.
In series [5] the target is Sodium channel protein type 9 subunit alpha (Homo sapiens, UniProt Q15858). Briefly: Inhibition of human Nav1.7 by PatchXpress assay.
Series [6] is described as follows: Intrinsic clearance in rat liver microsomes assessed as loss of parent compound incubated for 30 mins. Particulars: read-out: CLH. Format: ADME, Microsome.
Series [7] can be described thus: Lipophilicity, logD of compound at pH 7.4. Format: physicochemical. Particulars: buffer.
Another series has as its target Cytochrome P450 2C9 (Homo sapiens, UniProt P11712). Briefly: Inhibition of CYP2C9 (unknown origin) using diclofenac as substrate. Format: ADME.
Series [8] in a line: Passive permeability of compound. It is filed as ADME. Particulars: not told; read-out: permeability.
The test system of the next series is Mus musculus. Briefly: Antinociceptive activity in mouse model of Histamine-induced itching assessed as reduction in scratching bouts at 30 mg/kg, po relative to control. It is filed as functional. The arrangement: scale not given: the % may be the effect or the level left.
In series [9] the target is T2, Cytochrome P450 2D6 (Homo sapiens, UniProt P10635). Put plainly: Time dependent inhibition of CYP2D6 (unknown origin) incubated for 30 mins. It is filed as ADME.
The target of series [10] is T2, Cytochrome P450 2D6. Briefly: Time dependent inhibition of CYP2D6 (unknown origin) preincubated for 30 mins followed by substrate addition. It is filed as ADME.

Here are results for 12 compounds from ChEMBL document CHEMBL5104138, “Discovery of pyridyl urea sulfonamide inhibitors of NaV1.7” (Bioorg Med Chem Lett, 2022).

Each structure is given as a SMILES string.

T1 sequence (P08684 whole entry): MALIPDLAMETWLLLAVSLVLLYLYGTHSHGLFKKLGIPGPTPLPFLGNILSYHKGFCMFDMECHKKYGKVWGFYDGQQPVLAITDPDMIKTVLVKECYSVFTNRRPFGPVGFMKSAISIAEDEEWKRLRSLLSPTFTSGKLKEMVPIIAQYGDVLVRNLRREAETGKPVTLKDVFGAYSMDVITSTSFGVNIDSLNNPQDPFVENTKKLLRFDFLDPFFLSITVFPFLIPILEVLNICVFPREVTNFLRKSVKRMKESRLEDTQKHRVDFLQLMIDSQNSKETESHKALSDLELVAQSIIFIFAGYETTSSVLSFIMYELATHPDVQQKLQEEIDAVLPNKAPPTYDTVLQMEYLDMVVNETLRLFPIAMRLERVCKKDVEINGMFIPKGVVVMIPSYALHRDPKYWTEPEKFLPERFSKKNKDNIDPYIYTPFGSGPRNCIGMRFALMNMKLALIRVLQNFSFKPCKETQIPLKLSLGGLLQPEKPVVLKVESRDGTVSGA
T2 sequence (P10635 whole entry): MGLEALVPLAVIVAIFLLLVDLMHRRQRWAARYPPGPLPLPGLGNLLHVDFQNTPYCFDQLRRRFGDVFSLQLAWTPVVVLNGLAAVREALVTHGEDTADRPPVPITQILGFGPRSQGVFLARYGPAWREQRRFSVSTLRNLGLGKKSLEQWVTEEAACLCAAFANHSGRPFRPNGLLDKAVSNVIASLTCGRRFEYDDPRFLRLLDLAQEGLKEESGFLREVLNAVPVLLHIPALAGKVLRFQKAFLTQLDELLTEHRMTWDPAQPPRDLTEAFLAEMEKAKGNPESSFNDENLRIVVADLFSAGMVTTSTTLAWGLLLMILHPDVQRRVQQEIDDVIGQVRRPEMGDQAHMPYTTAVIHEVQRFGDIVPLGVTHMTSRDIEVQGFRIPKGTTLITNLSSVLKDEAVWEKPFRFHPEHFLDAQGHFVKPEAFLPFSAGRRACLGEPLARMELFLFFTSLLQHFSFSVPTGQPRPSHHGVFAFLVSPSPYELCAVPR
Cytochrome P450 2C9, sequence (P11712 whole entry): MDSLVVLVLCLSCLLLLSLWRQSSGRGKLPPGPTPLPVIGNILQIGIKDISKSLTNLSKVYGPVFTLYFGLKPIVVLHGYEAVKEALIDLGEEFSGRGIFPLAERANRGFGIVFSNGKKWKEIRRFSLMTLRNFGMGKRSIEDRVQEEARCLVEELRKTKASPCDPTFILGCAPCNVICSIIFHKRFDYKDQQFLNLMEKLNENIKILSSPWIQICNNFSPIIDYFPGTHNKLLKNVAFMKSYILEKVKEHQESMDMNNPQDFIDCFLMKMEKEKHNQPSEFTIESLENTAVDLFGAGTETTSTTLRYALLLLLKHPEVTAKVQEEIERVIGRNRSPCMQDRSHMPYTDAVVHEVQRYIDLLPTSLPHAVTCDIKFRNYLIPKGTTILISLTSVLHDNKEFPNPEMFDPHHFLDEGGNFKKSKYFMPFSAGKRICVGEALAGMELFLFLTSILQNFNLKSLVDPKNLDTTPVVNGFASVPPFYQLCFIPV

For the compound `CNC(=O)N(c1ccc(S(=O)(=O)Nc2ccon2)cn1)c1cc(F)c(-c2ccc(F)c(OC(F)(F)F)c2)cc1OC`, the IC50 against Cytochrome P450 3A4 [1] and at Cytochrome P450 3A4 [2] was > 50 µM throughout. For the same compound, the CL free in series [3] turned out to be 424 L/h/kg. The compound further showed a clearance in [4] of 48.3 mL/min/kg.

For the compound `COc1cc(-c2ccc(Cl)c(C)c2)ccc1N(C(=O)N(C)C)c1ccc(S(=O)(=O)Nc2ccon2)cn1`, the IC50 in [5] is > 5000 nM.

On to `CNC(=O)N(c1ccc(S(=O)(=O)Nc2ccon2)cn1)c1cc(Cl)c(-c2ccc(F)c(C(F)(F)F)c2)cc1OC`, for which the values for the IC50 against Cytochrome P450 3A4 [1] and on Cytochrome P450 3A4 [2] were 12 µM and > 50 µM, respectively.

On to `COc1cc(-c2ccc(Cl)c(C)c2)ccc1-n1c(=O)ccc2cc(S(=O)(=O)Nc3ccon3)ccc21`, for which the IC50 is 32 µM on Cytochrome P450 3A4 [1], 5000 nM in [5], 10 nM in [5] (record 2) and > 50 µM against Cytochrome P450 3A4 [2]. The microsomal CLint in series [6] is 28 µL/min/mg. This compound had a logD in series [7] of 2.5. Also, the CL free in [3] came to 132 L/h/kg. Further, the clearance in series [4] is 13 mL/min/kg.

Take `CNC(=O)N(c1ccc(S(=O)(=O)Nc2ccon2)cn1)c1cc(Cl)c(-c2cccc(C(F)(F)F)c2)cc1OC`: the IC50 was 5 µM on Cytochrome P450 3A4 [1], 17 nM in [5] and > 50 µM against Cytochrome P450 3A4 [2].

On to `CNC(=O)N(c1ccc(S(=O)(=O)Nc2ccon2)cn1)c1ccc(-c2ccc(Cl)c(C)c2)cc1OC`, for which the IC50 is > 50 µM at Cytochrome P450 3A4 [1], 87 nM in series [5], > 50 µM against Cytochrome P450 3A4 [2] and 3.3 µM at Cytochrome P450 2C9. For the same compound, in series [6], the microsomal CLint came out at 29 µL/min/mg. In [7], this compound displayed a logD of 0.8. Moreover, the CL free in [3] is 368 L/h/kg. In addition, the clearance in [4] was 14.7 mL/min/kg.

Take `CNC(=O)N(c1ccc(S(=O)(=O)Nc2ncccn2)cn1)c1cc(F)c(-c2cccc(C(F)(F)F)c2)cc1OC`: the IC50 on Cytochrome P450 3A4 [1] was > 50 µM; in series [5] it was 130 nM; against Cytochrome P450 3A4 [2] it was 9 µM. The compound also returned a logD in series [7] of 1. Also, the CL free in [3] came out at 16 L/h/kg. Besides, the clearance in [4] is 0.5 mL/min/kg.

In turn, `COc1cc(-c2cccc(C(F)(F)F)c2)c(Cl)cc1N(C(N)=O)c1ccc(S(=O)(=O)Nc2ccon2)cn1` had an IC50 in [5] of 8 nM. In addition, the Papp in series [8] is < 1.5 ×10⁻⁶ cm/s. The clearance in series [4] was 88.3 mL/min/kg.

Turning to `CNC(=O)N(c1ccc(S(=O)(=O)Nc2ccon2)cn1)c1cc(Cl)c(-c2cc(OC)nc(C(F)(F)F)c2)cc1OC`, the IC50 on Cytochrome P450 3A4 [1] and against Cytochrome P450 3A4 [2] was > 50 µM throughout.

For the compound `CN(C)CCOC(c1ccccc1)c1ccccc1` [DIPHENHYDRAMINE], the Activity in the series on Mus musculus turned out to be 73%.

Turning to `CNC(=O)N(c1ccc(S(=O)(=O)Nc2ncccn2)cn1)c1cc(F)c(-c2ccc(F)c(C(F)(F)F)c2)cc1OC`, the IC50 at Cytochrome P450 3A4 [1] and against Cytochrome P450 3A4 [2] was > 50 µM in each case. The same compound gave a pH-dependent lipophilicity (logD) in series [7] of 1.2. In [3], this compound had a CL free of 49 L/h/kg. Besides, the clearance in series [4] is 2.5 mL/min/kg.

As to `CNC(=O)N(c1ccc(S(=O)(=O)Nc2cccnn2)cn1)c1cc(F)c(-c2ccc(F)c(OC(F)(F)F)c2)cc1OC`, the IC50 on Cytochrome P450 2D6 [9] was 30 µM; against Cytochrome P450 3A4 [1], > 50 µM; against Cytochrome P450 2D6 [10], 19 µM; against Cytochrome P450 3A4 [2], > 50 µM. The compound also yielded a logD in [7] of 1.8. The compound further returned a CL free in [3] of 69 L/h/kg. In addition, the clearance in series [4] is 11.7 mL/min/kg.

As a reminder, the IC50 is the concentration that inhibits the measured activity by half. As a reminder, the clearance is the rate of elimination divided by the concentration. Broadly, the logD is lipophilicity at a set pH, counting ionised and neutral species.
